Results reported in US20060100287A1, “Insulin-like growth factor-1 secretagogue” (priority 2004, published 2006).

Tested on: IGF-1
Assay: Test Example 3: action of various capsaicinoids on mouse IGF-1 (test solutions on back skin)
Format: in vivo
[1] = test solution containing 0.01% by mass in ethanol/physiological saline, 0.2 mL/cm^2 on back skin, 30 minutes after application, p<0.01 (FIG. 3, FIG. 4)

SMILES: COc1cc(COC(=O)CCCCCCC(C)C)ccc1O [dihydrocapsiate]
- amount of IGF-1 in the mouse back skin compared to the base preparation [1]: significantly elevated

SMILES: COc1cc(CNC(=O)CCCCCC(C)C)ccc1O [nordihydrocapsaicin]
- amount of IGF-1 in the mouse back skin compared to the base preparation (mouse, in vivo): significantly elevated

SMILES: COc1cc(COC(=O)CCCCCC(C)C)ccc1O [nordihydrocapsiate]
- amount of IGF-1 in the mouse back skin compared to the base preparation [1]: significantly elevated

SMILES: COc1cc(COC(=O)CCCC/C=C/C(C)C)ccc1O [capsiate]
- amount of IGF-1 in the mouse back skin compared to the base preparation [1]: significantly elevated

SMILES: CCCCCCCCC(=O)NCc1ccc(O)c(OC)c1 [nonylic vanillylamide]
- amount of IGF-1 in the mouse back skin compared to the base preparation (mouse, in vivo): significantly elevated

SMILES: COc1cc(CNC(=O)CCCCCCC(C)C)ccc1O [dihydrocapsaicin]
- amount of IGF-1 in the mouse back skin compared to the base preparation [1]: significantly elevated

SMILES: COc1cc(CNC(=O)CCCC/C=C/C(C)C)ccc1O [capsaicin, (6E)-N-[(4-hydroxy-3-methoxyphenyl)methyl]-8-methyl-6-nonenamide, reference compound]
- amount of IGF-1 in the mouse back skin compared to the base preparation [1]: significantly elevated
